Reference: ChEMBL document CHEMBL3603776, “2-Phenoxy-1,4-naphthoquinones: From a Multitarget Antitrypanosomal to a Potential Antitumor Profile” (J Med Chem, 2015)
Activity calls are given as the source filed them. The rule behind the calls is not given here.

Legend:
L6 = assay: Cytotoxicity against rat L6 cells after 72 hrs by alamar blue assay; format: cell-based; conditions: L6, 72 h
[1] = target: Glyceraldehyde-3-phosphate dehydrogenase (Homo sapiens, UniProt P04406); assay: Inhibition of recombinant human GAPDH assessed as oxidative phosphorylation of D-glyceraldehyde-3-phosphate to 1,3-bisphosphoglycerate by spectrophotometric method
[2] = Selectivity index, ratio of IC50 for rat L6 cells to IC50 for amastigotes of Leishmania donovani MHOM/ET/67/L82; format: toxicity, cell-based; conditions: read-out: Ratio IC50
Leishmania donovani = assay: Antitrypanosomal activity against amastigotes of Leishmania donovani MHOM/ET/67/L82 after 72 hrs by inverted microscope analysis; format: functional, organism-based; conditions: MHOM/ET/67/L82, 72 h
Bos taurus [3] = species on record: Bos taurus; assay: Inhibition of electron transport protein complex 1 in bovine hear mitochondria assessed as reduction of NADH-induced ROS production at 10 uM by fluorescence plate reader analysis
HT-29 [4] = assay: Cytotoxicity against human HT-29 cells after 24 hrs by MTT assay; format: functional, cell-based; conditions: HT-29, 24 h
HT-29 [5] = assay: Selectivity index, ratio of IC50 for HDF to IC50 for human HT-29 cells
[6] = Cytotoxicity against HDF after 24 hrs by MTT assay; conditions: Homo sapiens
IGROV-1 [7] = assay: Cytotoxicity against human IGROV1 cells after 24 hrs by MTT assay; format: functional, cell-based; conditions: IGROV-1, 24 h
[8] = Inhibition of recombinant Trypanosoma brucei GAPDH assessed as oxidative phosphorylation of D-glyceraldehyde-3-phosphate to 1,3-bisphosphoglycerate by spectrophotometric method
Bos taurus [9] = species on record: Bos taurus; assay: Inhibition of electron transport protein complex 2 in bovine hear mitochondria assessed as reduction of succinate-induced oxygen consumption at 5 uM
[10] = Selectivity index, ratio of IC50 for rat L6 cells to IC50 for bloodstream forms of Trypanosoma brucei rhodesiense STIB 900; format: toxicity, cell-based; conditions: read-out: Ratio IC50
Trypanosoma brucei = assay: Inhibition of recombinant Trypanosoma brucei GAPDH assessed as oxidative phosphorylation of D-glyceraldehyde-3-phosphate to 1,3-bisphosphoglycerate at 5 uM by spectrophotometric method relative to 2-phenoxy-1,4-naphthoquinone
[11] = system: Trypanosoma brucei rhodesiense; assay: Antitrypanosomal activity against bloodstream forms of Trypanosoma brucei rhodesiense STIB 900 after 72 hrs by alamar blue assay; format: functional, organism-based; conditions: STIB 900, 72 h
Bos taurus [12] = species on record: Bos taurus; assay: Inhibition of electron transport protein complex 1 in bovine hear mitochondria assessed as reduction of NADH-induced oxygen consumption at 5 uM
IGROV-1 [13] = assay: Selectivity index, ratio of IC50 for HDF to IC50 for human IGROV1 cells
Trypanosoma cruzi = assay: Antitrypanosomal activity against trypomastigote forms of Trypanosoma cruzi Tulahuen C4 expressing LacZ gene infected in rat L6 cells after 96 hrs by inverted microscope analysis; format: functional, organism-based; conditions: Tulahuen C4, L6, 96 h
[14] = Selectivity index, ratio of IC50 for rat L6 cells to IC50 for trypomastigote forms of Trypanosoma cruzi Tulahuen C4; format: toxicity, cell-based; conditions: read-out: Ratio IC50
Bos taurus [15] = species on record: Bos taurus; assay: Inhibition of electron transport protein complex 1 in bovine hear mitochondria assessed as enzyme activity per min/mg of protein using […] as substrate at 10 uM

Glyceraldehyde-3-phosphate dehydrogenase, sequence (P04406 whole entry): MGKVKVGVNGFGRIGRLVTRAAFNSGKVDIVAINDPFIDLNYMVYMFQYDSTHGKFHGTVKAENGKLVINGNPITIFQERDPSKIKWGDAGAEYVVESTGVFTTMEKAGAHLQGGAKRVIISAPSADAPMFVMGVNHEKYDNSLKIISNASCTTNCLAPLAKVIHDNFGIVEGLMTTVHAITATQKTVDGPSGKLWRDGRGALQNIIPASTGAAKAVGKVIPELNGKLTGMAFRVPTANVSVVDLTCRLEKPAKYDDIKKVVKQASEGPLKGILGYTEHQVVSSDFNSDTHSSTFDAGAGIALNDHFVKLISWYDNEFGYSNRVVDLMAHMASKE

Compound | IC50 (L6) | IC50 [1] | selectivity ratio [2] | IC50 (Leishmania donovani) | inhibition (Bos taurus [3]) | IC50 (HT-29 [4]) | Ratio IC50 (HT-29 [5]) | IC50 [6] | IC50 (IGROV-1 [7]) | IC50 [8] | inhibition (Bos taurus [9]) | selectivity ratio [10] | inhibition (Trypanosoma brucei) | IC50 [11] | inhibition (Bos taurus [12]) | Ratio IC50 (IGROV-1 [13]) | IC50 (Trypanosoma cruzi) | selectivity ratio [14] | Activity (Bos taurus [15])
O=C1C(Oc2ccccc2)=CC(=O)c2c(O)cccc21 | 0.26 µM | 2.41 µM | 0.03 | 8.41 µM | Active | 2.42 µM | 6.2 | 15 µM | 2.52 µM | 11.6 µM | inactive | 0.06 | 88% | 4.43 µM | 40% | 5.96 | – | – | –
O=C1C=C(Oc2ccc(F)cc2)C(=O)c2c(O)cccc21 | 0.74 µM | – | 0.55 | 1.33 µM | – | – | – | – | – | – | inactive | 0.54 | 128% | 1.37 µM | – | – | – | – | –
O=C(Cn1ccnc1[N+](=O)[O-])NCc1ccccc1 [BENZNIDAZOLE] | > 384 µM | – | – | – | – | – | – | – | – | – | – | – | – | – | – | – | – | – | –
CC(=O)Nc1ccc(OC2=CC(=O)c3cccc(O)c3C2=O)cc1 | 0.15 µM | – | 0.07 | 2.33 µM | – | – | – | – | – | – | inactive | 0.24 | 48% | 0.65 µM | – | – | – | – | –
O=C1C=C(Oc2ccccc2)C(=O)c2cc3ccccc3cc21 | – | – | – | – | – | – | – | – | – | – | – | – | 68% | – | – | – | – | – | –
O=C1C=C(Oc2ccc(F)cc2)C(=O)c2cc3ccccc3cc21 | 1.07 µM | – | 0.5 | 2.14 µM | – | – | – | – | – | – | inactive | 0.88 | 32% | 1.21 µM | – | – | – | – | –
CC(=O)Nc1ccc(OC2=CC(=O)c3c(O)cccc3C2=O)cc1 | 0.59 µM | – | 0.15 | 3.8 µM | – | – | – | – | – | – | inactive | 0.27 | 0% | 2.17 µM | – | – | – | – | –
COc1cc([C@@H]2c3cc4c(cc3[C@H](O)[C@H]3COC(=O)[C@H]23)OCO4)cc(OC)c1OC [PODOFILOX] | 0.002 µM | – | – | – | – | – | – | – | – | – | – | – | – | – | – | – | – | – | –
CC(=O)Nc1ccc(OC2=CC(=O)c3cc4ccccc4cc3C2=O)cc1 | 0.19 µM | – | 0.06 | 3.25 µM | – | – | – | – | – | – | inactive | 0.16 | 90% | 1.21 µM | – | – | – | – | –
Cc1ccc(OC2=CC(=O)c3c(O)cccc3C2=O)cc1 | 1.03 µM | – | 0.19 | 5.46 µM | – | – | – | – | – | – | inactive | 0.44 | 40% | 2.37 µM | – | – | – | – | –
CCCCCCCCCCCCCCCCOP(=O)([O-])OCC[N+](C)(C)C [MILTEFOSINE] | – | – | 462 | – | – | – | – | – | – | – | – | – | – | – | – | – | – | – | –
COc1cccc2c1C(=O)C(Oc1ccc(NC(C)=O)cc1)=CC2=O | 0.65 µM | – | 0.11 | 5.87 µM | – | – | – | – | – | – | inactive | 0.16 | 64% | 4.15 µM | – | – | – | – | –
COc1cccc2c1C(=O)C=C(Oc1ccc(F)cc1)C2=O | 1.34 µM | – | 0.36 | 3.72 µM | – | – | – | – | – | – | inactive | 1.99 | 120% | 0.67 µM | – | – | – | – | –
CC(=O)Nc1ccc(OC2=CC(=O)c3ccccc3C2=O)cc1 | 3.35 µM | – | 0.83 | 4.04 µM | – | – | – | – | – | – | inactive | 1.39 | 68% | 2.4 µM | – | – | 4.17 µM | 0.8 | –
COc1ccc(OC2=CC(=O)c3cccc(O)c3C2=O)cc1 | 1.04 µM | – | 0.33 | 3.13 µM | – | – | – | – | – | – | inactive | 0.61 | 76% | 1.71 µM | – | – | – | – | –
O=C1C=C(Oc2ccccc2)C(=O)c2c(O)cccc21 | 1.5 µM | – | 0.51 | 2.96 µM | – | – | – | – | – | – | inactive | 1.76 | 84% | 0.85 µM | – | – | – | – | –

Compound | IC50 (L6) | IC50 [1] | selectivity ratio [2] | IC50 (Leishmania donovani) | inhibition (Bos taurus [3]) | IC50 (HT-29 [4]) | Ratio IC50 (HT-29 [5]) | IC50 [6] | IC50 (IGROV-1 [7]) | IC50 [8] | inhibition (Bos taurus [9]) | selectivity ratio [10] | inhibition (Trypanosoma brucei) | IC50 [11] | inhibition (Bos taurus [12]) | Ratio IC50 (IGROV-1 [13]) | IC50 (Trypanosoma cruzi) | selectivity ratio [14] | Activity (Bos taurus [15])
COc1cccc2c1C(=O)C=C(Oc1ccccc1)C2=O | 1.85 µM | – | 0.33 | 5.6 µM | – | – | – | – | – | – | inactive | 2.74 | 88% | 0.68 µM | – | – | – | – | –
COc1ccc(OC2=CC(=O)c3c(OC)cccc3C2=O)cc1 | 1.58 µM | – | 0.51 | 3.09 µM | – | – | – | – | – | – | inactive | 2.46 | 44% | 0.64 µM | – | – | – | – | –
Cc1ccc(OC2=CC(=O)c3ccccc3C2=O)cc1 | 3.82 µM | – | 1.12 | 3.41 µM | – | – | – | – | – | – | inactive | 1.67 | 24% | 2.28 µM | – | – | 1.62 µM | 2.35 | –
COc1cccc2c1C(=O)C(Oc1ccc(F)cc1)=CC2=O | 0.77 µM | 1.34 µM | 0.13 | 5.97 µM | Active | 2.7 µM | 4.4 | 11.9 µM | 1.73 µM | 9.92 µM | inactive | 0.16 | – | 4.76 µM | 40% | 6.87 | – | – | 0.053 µmol/min/mg
Cc1ccc(OC2=CC(=O)c3cc4ccccc4cc3C2=O)cc1 | 0.13 µM | – | 0.11 | 1.16 µM | – | – | – | – | – | – | inactive | 0.17 | 0% | 0.73 µM | – | – | – | – | –
O=C1C(Oc2ccc(F)cc2)=CC(=O)c2c(O)cccc21 | 1.41 µM | – | 0.47 | 2.99 µM | – | – | – | – | – | – | inactive | 0.52 | 136% | 2.69 µM | – | – | – | – | –
COc1cccc2c1C(=O)C(Oc1ccc(C)cc1)=CC2=O | 0.75 µM | – | 0.07 | 10.9 µM | – | – | – | – | – | – | inactive | 0.34 | 20% | 2.18 µM | – | – | – | – | –
COc1cccc2c1C(=O)C(Oc1ccccc1)=CC2=O | 0.64 µM | – | 0.05 | 13.1 µM | – | – | – | – | – | – | inactive | 0.36 | 72% | 1.76 µM | – | – | – | – | –
O=C1C=C(Oc2ccc(F)cc2)C(=O)c2ccccc21 | 4.51 µM | – | 2.47 | 1.82 µM | – | – | – | – | – | – | inactive | 1.11 | 80% | 4.06 µM | – | – | 3.91 µM | 1.15 | –
COc1cccc2c1C(=O)C=C(Oc1ccc(NC(C)=O)cc1)C2=O | 4.89 µM | – | 1.02 | 4.77 µM | – | – | – | – | – | – | inactive | 7.3 | 52% | 0.67 µM | – | – | 4.06 µM | 1.2 | –
Cc1ccc(OC2=CC(=O)c3cccc(O)c3C2=O)cc1 | 4.03 µM | – | 1.34 | 2.99 µM | – | – | – | – | – | – | inactive | 1.56 | 44% | 2.58 µM | – | – | 7.39 µM | 0.54 | –
COc1ccc(OC2=CC(=O)c3cccc(OC)c3C2=O)cc1 | 1.09 µM | – | 0.05 | 22.5 µM | – | – | – | – | – | – | inactive | 0.18 | 48% | 6.03 µM | – | – | – | – | –
Nc1nc(N)nc(Nc2ccc([As]3SCC(CO)S3)cc2)n1 (centres undefined) [MELARSOPROL] | – | – | – | – | – | – | – | – | – | – | – | 1830 | – | – | – | – | – | – | –
COc1ccc(OC2=CC(=O)c3ccccc3C2=O)cc1 | 6.1 µM | – | 1.15 | 5.32 µM | – | – | – | – | – | – | inactive | 2.51 | 28% | 2.43 µM | – | – | 4.17 µM | 1.46 | –
COc1cccc2c1C(=O)C=C(Oc1ccc(C)cc1)C2=O | 1.49 µM | – | 0.57 | 2.64 µM | – | – | – | – | – | – | inactive | 2.71 | 40% | 0.55 µM | – | – | – | – | –
COc1ccc(OC2=CC(=O)c3c(O)cccc3C2=O)cc1 | 1.04 µM | – | 0.5 | 2.11 µM | – | – | – | – | – | – | inactive | 0.73 | 24% | 1.44 µM | – | – | – | – | –
